Source: ChEMBL document CHEMBL1130895, “Syntheses of 2-[(3,5-dimethyl-4-methoxypyridyl)alkyl]-benzothiazolidine derivatives as a potential gastric H+/K(+)-ATPase inhibitor” (Bioorg Med Chem Lett, 1998)

Columns and labels:
[1] = molecular target: Potassium-transporting ATPase (Homo sapiens, UniProt P20648); test: Inhibition of H+/K+ ATPase activity in buffered solution (pH 7.4); format: protein-complex assay
[2] = molecular target: Potassium-transporting ATPase (Homo sapiens) (UniProt P20648+P51164); test: Inhibition of H+/K+ ATPase activity in buffered solution (pH 7.4) at concentration […]; format: protein-complex assay

IC50 [1] [µM] | inhibition [2] [%] | Compound
> 100 | 61.1 | COc1c(C)cnc(/C=C/C2(C)Nc3ccccc3S2)c1C (stereo not given)
 | 0 | COc1c(C)cnc(CCCC2(C)Nc3ccccc3S2)c1C (stereo not given)
 | 24.6 | COc1c(C)cnc(CCC2Nc3ccccc3S2)c1C (stereo not given)
24 | 84.4 | COc1c(C)cnc(CCC2(C)Nc3cc(C(F)(F)F)ccc3S2)c1C (stereo not given)
 | 0 | CC1(CCc2ccccn2)Nc2ccccc2S1 (stereo not given)
98 | 96.4 | COc1c(C)cnc(CCC2(C)Nc3ccccc3S2)c1C (stereo not given)
 | 19.8 | CCOC(=O)[C@@H]1CSC(CCc2ncc(C)c(OC)c2C)N1 (stereo not given in full)
 | 0 | COc1c(C)cnc(CCC2(C)Nc3cc(C)ccc3S2)c1C (stereo not given)
 | 17 | COc1c(C)cnc(CCC2(C)Sc3ccccc3N2C)c1C (stereo not given)
 | 0 | COc1c(C)cnc(C2Nc3ccccc3S2)c1C (stereo not given)
33 | 81 | COc1c(C)cnc(CCC2(C)Nc3cc(F)ccc3S2)c1C (stereo not given)
 | 0 | COc1c(C)cnc(CCC2(C)Nc3ccc(Cl)cc3S2)c1C (stereo not given)
> 100 | 20 | COc1c(C)cnc(CCC2(C)Nc3cc(Cl)ccc3S2)c1C (stereo not given)
 | 95 | COc1ccc2[nH]c([S+]([O-])Cc3ncc(C)c(OC)c3C)nc2c1 (stereo not given)
 | 58.5 | COc1c(C)cnc(CC2Nc3ccccc3S2)c1C (stereo not given)
